± gives the standard deviation of the averaged measurements.
Columns and labels:
[1] = compound: CCn1c(C(=O)N(C2CC2)C2CC2)cc2c3c(ncn3C)c(Nc3cc(C)n(C)n3)nc21; assay: surviving fraction relative to DMSO-only wells; higher = less growth inhibition; settings: exposure time: 5 days
In short: (§1)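 Luminescence normalised to the median of DMSO-only wells defines surviving fraction, with viability read by CellTiter-Glo. Signal was recorded after 10 minutes at room temperature, once log-phase tumour cell lines seeded at 250–500 cells per well in 384-well plates had spent 24 hours settling and then five days under continuous exposure to inhibitors at 0.5, 1, 5, 10, 50, 100, 500 and 1000 nM.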

CRIZOTINIB = compound: C[C@@H](Oc1cc(-c2cnn(C3CCNCC3)c2)cnc1N)c1c(Cl)ccc(F)c1Cl [CRIZOTINIB]; assay: as above; settings: exposure time: 5 days
In short: as §1

Test System | surviving fraction ([1]; 0.5 nM) | surviving fraction ([1]; 1 nM) | surviving fraction ([1]; 5 nM) | surviving fraction ([1]; 10 nM) | surviving fraction ([1]; 50 nM) | surviving fraction ([1]; 100 nM) | surviving fraction ([1]; 500 nM) | surviving fraction ([1]; 1000 nM) | surviving fraction (CRIZOTINIB; 0.5 nM) | surviving fraction (CRIZOTINIB; 1 nM) | surviving fraction (CRIZOTINIB; 5 nM) | surviving fraction (CRIZOTINIB; 10 nM) | surviving fraction (CRIZOTINIB; 100 nM) | surviving fraction (CRIZOTINIB; 500 nM) | surviving fraction (CRIZOTINIB; 1000 nM) | surviving fraction (CRIZOTINIB; 50 nM)
SG32 HEADNECK | 0.996 ± 0.081 | 1.17 ± 0.013 | 1.22 ± 0.2 | 1.22 ± 0.25 | 0.95 ± 0.19 | 0.98 ± 0.12 | 1.02 ± 0.24 | 0.86 ± 0.022 | 1.09 ± 0.096 | 1.05 ± 0.096 | 1.21 ± 0.066 | 0.936 ± 0.088 | 1.01 ± 0.12 | 0.541 ± 0.036 | 0.352 ± 0.016 | 
SG43 HEADNECK | 1.02 ± 0.22 | 1.02 ± 0.15 | 0.746 ± 0.015 | 0.935 ± 0.19 | 1.08 ± 0.27 | 0.767 ± 0.2 | 0.962 ± 0.31 | 0.784 ± 0.22 | 1.28 ± 0.25 | 1.06 ± 0.15 | 1.02 ± 0.062 | 0.947 ± 0.31 | 0.756 ± 0.094 | 0.586 ± 0.027 | 0.271 ± 0.03 | 0.87 ± 0.073
SIHA CERVIX | 0.868 ± 0.064 | 0.906 ± 0.052 | 0.991 ± 0.036 | 0.965 ± 0.041 | 1.04 ± 0.068 | 1.08 ± 0.057 | 0.983 ± 0.11 | 0.91 ± 0.078 | 1.08 ± 0.044 | 1.06 ± 0.079 | 1.12 ± 0.053 | 1.14 ± 0.061 | 1.09 ± 0.059 | 0.9 ± 0.028 | 0.662 ± 0.014 | 1.06 ± 0.046
SJSA1 BONE | 1.03 ± 0.041 | 1.01 ± 0.028 | 1.02 ± 0.028 | 1.01 ± 0.057 | 1.06 ± 0.021 | 1.07 ± 0.022 | 1.059 ± 0.007 | 1.05 ± 0.034 | 1.72 ± 0.049 | 1.69 ± 0.11 | 1.65 ± 0.11 | 1.719 ± 0.008 | 1.57 ± 0.021 | 1.62 ± 0.037 | 1.06 ± 0.11 | 0.796 ± 0.079
SKBR3 BREAST | 0.949 ± 0.15 | 1.07 ± 0.11 | 0.955 ± 0.11 | 1.04 ± 0.12 | 1.08 ± 0.12 | 1.1 ± 0.049 | 1.04 ± 0.081 | 0.999 ± 0.14 | 1.12 ± 0.084 | 1.1 ± 0.046 | 1.09 ± 0.03 | 1.14 ± 0.25 | 1.03 ± 0.046 | 1 ± 0.12 |  | 
SNU475 LIVER | 0.974 ± 0.012 | 0.957 ± 0.049 | 0.973 ± 0.025 | 0.989 ± 0.026 | 0.979 ± 0.051 | 0.959 ± 0.017 | 0.938 ± 0.0085 | 0.895 ± 0.039 | 1.03 ± 0.029 | 1.08 ± 0.012 | 1.08 ± 0.062 | 1.1 ± 0.027 | 1.02 ± 0.03 | 0.948 ± 0.052 | 0.809 ± 0.024 | 1.01 ± 0.016
SUM44 BREAST | 0.98 ± 0.056 | 1 ± 0.0096 | 1.04 ± 0.026 | 0.997 ± 0.086 | 1.03 ± 0.08 | 1.12 ± 0.025 | 1.02 ± 0.068 | 1.01 ± 0.057 | 1.28 ± 0.41 | 1.26 ± 0.39 |  | 1.25 ± 0.42 | 1.36 ± 0.47 | 1.25 ± 0.46 | 1.17 ± 0.43 | 1.33 ± 0.42
SUM149 BREAST | 1.04 ± 0.093 | 1.05 ± 0.12 | 1.07 ± 0.059 | 1.06 ± 0.026 | 1.04 ± 0.05 | 1.04 ± 0.16 | 1.06 ± 0.037 | 1.1 ± 0.16 | 1.08 ± 0.024 | 1.05 ± 0.075 |  | 0.96 ± 0.033 |  | 0.817 ± 0.07 | 0.51 ± 0.072 | 1.01 ± 0.13
SUM149.B1*.S BREAST | 1.05 ± 0.053 | 0.99 ± 0.02 | 1.05 ± 0.014 | 1 ± 0.013 | 1.08 ± 0.045 | 1.11 ± 0.018 | 1.07 ± 0.011 | 1.08 ± 0.033 | 1.12 ± 0.043 | 1.19 ± 0.041 | 1.15 ± 0.052 | 1.14 ± 0.067 | 1.18 ± 0.059 | 1.11 ± 0.029 | 1.03 ± 0.047 | 1.13 ± 0.058
SUM159 BREAST | 1.04 ± 0.063 | 0.972 ± 0.041 | 0.997 ± 0.012 | 0.873 ± 0.2 | 0.95 ± 0.12 | 0.965 ± 0.12 | 0.955 ± 0.13 | 0.959 ± 0.1 | 1.11 ± 0.03 | 1.12 ± 0.056 | 1.12 ± 0.039 | 1.11 ± 0.022 | 1.103 ± 0.004 | 1.11 ± 0.013 |  | 1.09 ± 0.011
SYO1 SYNOVIAL | 0.939 ± 0.069 | 0.927 ± 0.055 | 0.951 ± 0.027 | 0.917 ± 0.09 | 1.01 ± 0.051 | 0.97 ± 0.011 | 0.977 ± 0.045 | 0.98 ± 0.017 | 0.967 ± 0.015 | 1.03 ± 0.029 | 0.953 ± 0.094 | 1 ± 0.028 | 0.891 ± 0.018 | 0.399 ± 0.03 | 0.169 ± 0.008 | 0.978 ± 0.042
T47D BREAST | 1.02 ± 0.045 | 0.994 ± 0.066 | 1 ± 0.026 | 0.955 ± 0.024 | 1.04 ± 0.02 | 1.05 ± 0.014 | 1.04 ± 0.067 | 1.04 ± 0.006 | 1.07 ± 0.024 | 1.08 ± 0.079 | 1.1 ± 0.043 | 1.08 ± 0.03 | 1.099 ± 0.0093 | 1.03 ± 0.038 | 0.93 ± 0.041 | 1.07 ± 0.045
U2OS BONE | 0.998 ± 0.025 | 1.03 ± 0.029 | 1.05 ± 0.023 | 1.02 ± 0.022 | 1.07 ± 0.053 | 1.077 ± 0.0072 | 1.03 ± 0.011 | 1.05 ± 0.013 | 1.02 ± 0.026 | 1.05 ± 0.033 | 1.03 ± 0.042 | 1.05 ± 0.029 | 1.05 ± 0.013 | 0.539 ± 0.023 | 0.459 ± 0.033 | 
VCAP PROSTATE | 0.98 ± 0.059 | 1.05 ± 0.12 | 1.15 ± 0.09 | 1.03 ± 0.051 | 1.11 ± 0.11 | 1.13 ± 0.18 | 1.06 ± 0.078 | 1.06 ± 0.092 | 1.09 ± 0.13 | 0.987 ± 0.1 | 1.13 ± 0.2 | 1.09 ± 0.02 |  | 0.504 ± 0.013 | 0.36 ± 0.04 | 1.02 ± 0.15
VP229 BREAST | 0.983 ± 0.11 | 1.04 ± 0.14 | 1.02 ± 0.21 | 1.06 ± 0.14 | 1.15 ± 0.13 | 1.09 ± 0.12 | 1.23 ± 0.1 | 1.14 ± 0.034 |  | 1.23 ± 0.082 | 1.06 ± 0.018 | 1.23 ± 0.059 | 1.15 ± 0.14 | 1.03 ± 0.15 | 0.686 ± 0.14 | 1.14 ± 0.048
YAMATO SYNOVIAL | 1.22 ± 0.059 | 1.21 ± 0.076 | 1.234 ± 0.012 | 1.19 ± 0.027 | 1.4 ± 0.081 | 1.32 ± 0.15 | 1.327 ± 0.0092 | 1.14 ± 0.023 | 1.13 ± 0.056 | 1.1 ± 0.15 | 1.2 ± 0.14 | 1.1 ± 0.1 | 0.324 ± 0.031 | 0.221 ± 0.021 | 0.269 ± 0.021 | 0.563 ± 0.036
ZR751 BREAST | 0.982 ± 0.19 | 0.864 ± 0.032 | 0.877 ± 0.11 | 0.99 ± 0.057 | 0.894 ± 0.095 | 0.8 ± 0.031 | 0.812 ± 0.027 | 0.772 ± 0.12 |  | 1.07 ± 0.14 | 0.926 ± 0.024 |  |  | 0.818 ± 0.095 | 0.747 ± 0.07 | 1.07 ± 0.1
